{"source": "patent US10611764B2", "about": "(Wisconsin Alumni Research Foundation, priority 2017, dated 2020)", "key": {"[1]": {"molecular_target": "T1, mAHR Q377A mutant (Mus musculus, UniProt P30561, Q377A)", "T1 construct": "expressed in transfected cells; host or cells: COS-1", "T1 sequence (P30561 10-805 Q377A limits assumed)": "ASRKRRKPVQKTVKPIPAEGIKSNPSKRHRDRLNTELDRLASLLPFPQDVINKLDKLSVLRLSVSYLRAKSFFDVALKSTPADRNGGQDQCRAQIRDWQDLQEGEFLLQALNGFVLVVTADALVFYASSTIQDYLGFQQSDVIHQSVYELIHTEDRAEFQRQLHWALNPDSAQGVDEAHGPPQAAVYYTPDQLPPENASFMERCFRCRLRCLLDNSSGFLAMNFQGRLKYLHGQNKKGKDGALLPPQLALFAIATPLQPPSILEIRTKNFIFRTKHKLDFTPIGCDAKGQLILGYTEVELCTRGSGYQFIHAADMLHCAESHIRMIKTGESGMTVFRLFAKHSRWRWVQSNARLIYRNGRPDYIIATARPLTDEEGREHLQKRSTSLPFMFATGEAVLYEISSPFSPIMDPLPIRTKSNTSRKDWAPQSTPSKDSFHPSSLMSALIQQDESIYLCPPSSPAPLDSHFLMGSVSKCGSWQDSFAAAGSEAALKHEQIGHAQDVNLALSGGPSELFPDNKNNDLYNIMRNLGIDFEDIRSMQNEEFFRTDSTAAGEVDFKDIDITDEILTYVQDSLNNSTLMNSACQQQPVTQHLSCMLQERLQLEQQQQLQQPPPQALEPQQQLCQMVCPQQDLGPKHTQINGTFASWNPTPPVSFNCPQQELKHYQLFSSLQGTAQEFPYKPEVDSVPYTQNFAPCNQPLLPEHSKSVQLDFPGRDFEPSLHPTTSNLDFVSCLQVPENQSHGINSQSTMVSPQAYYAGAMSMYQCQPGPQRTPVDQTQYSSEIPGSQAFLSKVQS", "assay": "Luciferase reporter gene assay, mutant mAHR Q377A in COS-1 cells", "assay_type": "cell-based", "conditions": "relative to WT mAHR"}, "[2]": {"tested_on": "mAHR H285A mutant", "assay": "Luciferase reporter gene assay, mutant mAHR H285A in COS-1 cells", "assay_type": "cell-based, mouse", "conditions": "relative to WT mAHR"}, "[3]": {"molecular_target": "T2, mAHR genetic variant A375V (D-allele) (Mus musculus, UniProt P30561, A375V/F348L/M589L/N533S/P471L)", "T2 construct": "expressed in transfected cells; host or cells: COS-1", "T2 sequence (P30561 10-805 F348L/A375V/P471L/N533S/M589L)": "T1 sequence (P30561 10-805 Q377A limits assumed) with F339L, A366V, A368Q, P462L, N524S, M580L", "assay": "Luciferase reporter gene assay, mAHR genetic variant A375V (D-allele)", "assay_type": "cell-based", "conditions": "compared with B-allele", "excerpt": "Physiological relevant ligands of the AHR would be expected to activate polymorphic receptors within species and structurally variant receptors across species. As a model of this idea an important endogenous AHR ligands would be expected to activate AHR genetic variants arising from the murine Ahr B1 and D alleles. These two well-known genetic variants, harbor a key sequence variation at residue 375, with alanine in the B1 allele, and valine in the D allele (A375V). Residue 375 is located near the medial position of the AHR-LBD. […] These observations support the notion that AHR genetic variants might function through these endogenous ligands to control normal physiological functions."}, "[4]": {"molecular_target": "T3, mouse AHR (mAHR B1-allele) (Mus musculus, UniProt P30561, M589L/N533S/P471L)", "T3 sequence (P30561 10-805 P471L/N533S/M589L)": "T1 sequence (P30561 10-805 Q377A limits assumed) with A368Q, P462L, N524S, M580L", "assay": "cell-based", "conditions": "for biological response, eight-hour versus four-hour induction: 8 h vs 4 h", "protocol": "The wild type and mutant mAHR were cloned into the XhoI/SalI cloning sites of pTARGET (Promega, Madison, Wis.) using routine PCR and molecular cloning procedures using the pSport-mAHR plasmid (PL65) as template (Dolwick, Swanson et al. 1993). For recombinant expression of mAHR, COS-1 cells were cultured in 6 cm dishes and transfected with 2 μg of wild-type or mutant mAHR expression vector. Twenty-four hours after transfection, cells were collected, and the whole cell extracts were prepared by celLytic M reagent (Sigma-Aldrich, St Louis, Mo.). 100 μg of whole cell extract was analyzed by western blot using antibodies that specifically recognize the mAHR (bear-2) and β-actin (Sigma).\nCOS-1 cells were cultured in 96-well plates and transiently transfected with pTarget vector containing the expression cassette of wild-type or mutant mAHR, or empty vector (3 ng), together with pGudLu6.1 DREs-driven luciferase reporter vector (14 ng) (Han, Nagy et al. 2004) and TK-renilla luciferase vector (3 ng) (Invitrogen, Carlsbad Calif.). […] The expressed luciferase activity was measured by ENSPIRE plate reader (Perkin Elmer, USA). Data analysis and simulation of dose response curves were performed using GraphPad Prism 5 (GraphPad software Inc., La Jolla, Calif.). The experiments were performed in triplicate and repeated at least three times. Representative results of one repeat are shown as mean±SEM."}, "[5]": {"tested_on": "mutant AHR, F289K, F281K, I373K, and L347R", "assay": "Luciferase reporter gene assay, mAHR hydrophobic pocket mutants in COS-1 cells", "assay_type": "cell-based, mouse"}, "[6]": {"tested_on": "A375V variant of AHR (D allele)", "conditions": "Chang 1993, Ema 1994, Poland 1994; cited from earlier work"}, "[7]": {"tested_on": "MH1C1 rat hepatoma cells", "conditions": "MH1C1 rat hepatoma cells exposed for three hours; cited from earlier work"}, "[8]": {"molecular_target": "T4, AHR (Rattus norvegicus, UniProt P41738)", "T4 sequence (P41738 10-853)": "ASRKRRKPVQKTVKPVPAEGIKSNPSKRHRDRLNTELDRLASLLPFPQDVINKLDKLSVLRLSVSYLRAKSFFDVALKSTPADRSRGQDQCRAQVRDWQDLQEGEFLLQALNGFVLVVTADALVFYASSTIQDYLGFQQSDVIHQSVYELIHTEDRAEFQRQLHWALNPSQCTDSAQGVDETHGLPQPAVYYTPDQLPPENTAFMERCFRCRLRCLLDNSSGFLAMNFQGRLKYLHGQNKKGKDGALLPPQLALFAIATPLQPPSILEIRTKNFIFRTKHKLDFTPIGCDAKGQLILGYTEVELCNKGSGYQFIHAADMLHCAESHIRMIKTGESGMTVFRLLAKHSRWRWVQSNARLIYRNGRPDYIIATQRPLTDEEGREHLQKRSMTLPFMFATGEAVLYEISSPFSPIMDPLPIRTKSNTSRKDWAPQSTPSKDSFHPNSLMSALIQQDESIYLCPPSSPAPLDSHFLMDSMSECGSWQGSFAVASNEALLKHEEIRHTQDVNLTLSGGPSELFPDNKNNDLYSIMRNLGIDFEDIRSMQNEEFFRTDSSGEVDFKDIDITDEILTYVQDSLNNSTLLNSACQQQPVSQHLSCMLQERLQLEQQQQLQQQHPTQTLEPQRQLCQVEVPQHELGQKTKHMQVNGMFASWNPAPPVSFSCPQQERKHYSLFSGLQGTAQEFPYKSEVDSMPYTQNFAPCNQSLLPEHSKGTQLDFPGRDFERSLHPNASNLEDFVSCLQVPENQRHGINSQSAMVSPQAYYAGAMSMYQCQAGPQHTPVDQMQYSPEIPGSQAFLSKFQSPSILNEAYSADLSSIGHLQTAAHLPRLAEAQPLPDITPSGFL", "conditions": "Rannug, Rannug et al. 1987; cited from earlier work"}}, "note": "Residue numbers refer to the chain shown, from its start. Where two headings read alike, the source gives them in different places.", "data": [{"compound": "Nc1ccccc1C(=O)CC(N)C(=O)O", "note": "(centres unmarked) [kynurenine]", "values": [{"measurement": "effect of Q377A mutation on AHR induction activity", "setting": "[1]", "result": "barely affected"}, {"measurement": "effect of H285A mutation on AHR induction activity", "setting": "[2]", "result": "completely disrupts"}, {"measurement": "activation of the A375V D-allele", "setting": "[3]", "result": "readily activate"}, {"measurement": "fold increase of activity by incubation or long-term storage", "setting": "[4]", "result": "100-1000 fold"}, {"measurement": "biological response, eight-hour versus four-hour induction", "setting": "[4]; COS-1 cells", "result": "higher biological response"}, {"measurement": "EC50", "setting": "[4]; EC50 of AHR activation, COS-1 cells expressing mAHR, luciferase reporter, 4 hours", "result": "~13000", "unit": "nM"}, {"measurement": "fold increase of AHR induction by incubation", "setting": "[4]; after 18 days at room temperature", "result": "~100", "unit": "fold"}, {"measurement": "fold increase of AHR induction by incubation", "setting": "[4]; after three days at 37° C.", "result": "~100", "unit": "fold"}, {"measurement": "maximum activity, higher than BaP", "setting": "[4]; relative to BaP, FIG. 2A", "result": 60, "unit": "%"}, {"measurement": "maximum AHR activation, higher than that induced by FICZ", "setting": "[4]; relative to FICZ, FIG. 1A", "result": "~40", "unit": "%"}, {"measurement": "effect of F289K and F281K mutations on responsiveness of AHR", "setting": "[5]; F289K, F281K", "result": "completely abolished"}, {"measurement": "effect of mutation of other hydrophobic residues to lysine or arginine on activity", "setting": "[5]; I373K, L347R, FIG. 1c", "result": "completely abolished"}]}, {"compound": "Clc1cc2c(cc1Cl)Oc1cc(Cl)c(Cl)cc1O2", "note": "[TCDD, 2,3,7,8-tetrachlorodibenzo-p-dioxin]", "values": [{"measurement": "binding to the A375V variant", "setting": "[6]", "result": "weakened binding"}]}, {"compound": "c1ccc2c(c1)cc1ccc3cccc4ccc2c1c34", "note": "[BaP, benzo[a]pyrene]", "values": [{"measurement": "activation of the A375V D-allele", "setting": "[3]", "result": "barely stimulate"}]}, {"compound": "Nc1ccccc1C(=O)CC(N)C(=O)O", "note": "(centres unmarked) [kynurenine (3 d, 6 m)]", "values": [{"measurement": "EC50", "setting": "[4]", "result": 2.7, "unit": "nM"}]}, {"compound": "c1ccc2c(c1)NC1=C3C2=NCC[C@H]3c2ccccc2N1", "note": "[274 ion fraction]", "values": [{"measurement": "AC50", "setting": "[4]", "result": "~5", "unit": "nM"}]}, {"compound": "6-formylindolo [3,2-b] carbazole [FICZ]", "values": [{"measurement": "EC50", "setting": "[7]", "result": 0.034, "unit": "nM"}, {"measurement": "effect of H285A mutation on AHR induction activity", "setting": "[2]", "result": "remains partially receptive"}, {"measurement": "biological response, eight-hour versus four-hour induction", "setting": "[4]; COS-1 cells", "result": "slightly reduced"}, {"measurement": "activity in the 20-hour induction", "setting": "[4]; COS-1 cells, 20 h vs 8 h and 4 h", "result": "further reduced"}, {"measurement": "EC50", "setting": "[4]; read-out: EC50 of AHR activation, COS-1 cells expressing mAHR, luciferase reporter, 4 hours", "result": 0.036, "unit": "nM"}, {"measurement": "Kd", "setting": "[8]", "result": 0.07, "unit": "nM"}]}, {"compound": "O=c1cc[nH]c2ccccc12", "note": "[4(1H)-Quinolinone (4-HQ), 4(1H)-Quinolinone]", "values": [{"measurement": "activity in AHR induction (in words)", "setting": "[4]; known chemical derivatives of kynurenine, FIG. 10b", "result": "did not show any activity"}]}]}
